Assay results from patent US7863315B2, “2-indolinone derivatives as selective histone deacetylase inhibitors” (Shenzhen Chipscreen Biosciences, Ltd., priority 2008, dated 2011).

Key:
Assay type in all cases: cell-based
[1] = tested on: HDAC4/5 (MEF2 reporter gene); experiment: HDAC subtype reporter gene assay, MEF-binding element (MEF2) luciferase in HeLa cells; conditions: Homo sapiens, M-HeLa, read-out: % of SAHA Response for HDAC4/5 at 10 μM (MEF2 reporter gene), 24 hours
Description: (§1) Measurement of inhibition of HDAC subtypes activity in cells by reporter gene assay: HDAC subtype selectivity inhibition assay of tested compounds was carried out by several reporter gene assays experiments. Briefly, HeLa cells were seeded in 96-well plates the day before transfection to give a confluence of 50-80%. Cells were transfected with one of reporter gene plasmids containing a promoter sequences or response elements upstream of a luciferase gene construct using FuGene6 transfection reagent according to the manufacturer's instructions (Roche). The promoters or response elements including p21-promoter, gdf11-promoter, MEF-binding element (MEF2), Nur77-promoter were fused upstream to the luciferase gene reporter construct. For normalizing the transfection efficiency, a GFP expression plasmid was cotransfected. Cells were allowed to express protein for 24 hours followed by addition of individual compounds or the vehicle (DMSO). 24 hours later, the cells were harvested and the luciferase assays were performed using the luciferase assay kit according to the manufacturer's instructions (Promega). To normalize the data from the luciferase assays, GFP activity from transfected cells was measured in a microtiter-plate reading fluorimeter capable of excitation at a wavelength at 485 nm and detection of emitted light at 527 nm.

[2] = tested on: HDAC class I (p21 reporter gene); experiment: HDAC subtype reporter gene assay, p21-promoter luciferase in HeLa cells; conditions: Homo sapiens, M-HeLa, read-out: % of SAHA Response for HDAC class I at 10 μM (p21 reporter gene), 24 hours
Description: as §1

[3] = tested on: HDAC7 (Nur77 reporter gene); experiment: HDAC subtype reporter gene assay, Nur77-promoter luciferase in HeLa cells; conditions: Homo sapiens, M-HeLa, read-out: % of SAHA Response for HDAC7 at 10 μM (Nur77 reporter gene), 24 hours
Description: as §1

[4] = tested on: HDAC3 (gdf11 reporter gene); experiment: HDAC subtype reporter gene assay, gdf11-promoter luciferase in HeLa cells; conditions: Homo sapiens, M-HeLa, read-out: % of SAHA Response for HDAC3 at 10 μM (gdf11 reporter gene), 24 hours
Description: as §1

Measured: Emax at 10 µM

O=C(CCCCCCC(=O)Nc1ccccc1)NO [SAHA, suberoylanilide hydroxamic acid, reference compound]
100%: all assays above
